# Reference: patent US20250382305A1 (PTC THERAPEUTICS, INC., priority 2022, published 2025)
# Assays:
# [1] = system: Total ATXN3 (tATXN3) protein; test: Endogenous Total ATXN3 (tATXN3) Protein Assay (MSD immunoassay of cell lysates); assay type: cell-based; conditions: average IC50, total ATXN3 protein in cell lysate after 48 h with compound (Table 1)
# Protocol: Endogenous Total ATXN3 (tATXN3) Protein Assay
# Meso Scale Discovery (MSD) 96-well or 384-well plates were coated overnight at 4° C. with Ataxin 3 mouse monoclonal antibody (Invitrogen, MA3-082) at a concentration of 0.5 μg/mL in PBS (30 μL per well). Plates were then washed three times with 300 μL wash buffer (0.05% TWEEN®-20, polyethylene glycol sorbitan monolaurate, in PBS) and blocked (Meso Scale Diagnostics, R93BA-1; 5% BSA in PBS) for 2 h at RT with rotational shaking and then washed three times with wash buffer.
# (§1) Test compounds were serially diluted 3.16-fold in 100% DMSO to generate a 7-point concentration curve. Aliquots of 0.5 μL of diluted compounds were transferred to a 96-well flat bottom plate by a liquid handler. An aliquot of 0.5 μL DMSO was also transferred to separate wells and used as controls. Duplicate samples were set up for each compound concentration and for the DMSO control.
# Cells were thawed and incubated in cell culture media (DMEM, 10% FBS, and 1% antibiotic cocktail) for 72 h. Cells were trypsinized, counted, and re-suspended to a concentration of 100,000 cells/mL in cell culture media. A 100 μL aliquot of the cell suspensions were plated at 10,000 cells per well in the compound containing 96 well microtiter plate and incubated for in a cell culture incubator (37° C., 5% CO2, 100% relative humidity). After 48 h, the medium was removed and 50-100 μL of lysis buffer (Meso Scale Diagnostics, R60TX-2) containing 1× halt protease inhibitor cocktail of (Thermo Scientific, Halt™ Protease Inhibitor Cocktail, 78430) per well was added to cells to provide a “cell lysate”. The plate was placed on a shaker at 4° C. for 30 minutes, then stored at −80° C.
# Cell lysate samples (25 μL) were transferred to the antibody-coated MSD plate and incubated overnight at 4° C. After removal of the lysates, the plate was washed three times with wash buffer, and 25 μL of Ataxin 3 recombinant rabbit monoclonal antibody (Invitrogen, #702788) secondary antibody (diluted to 0.25 μg/mL in 0.05% TWEEN®-20 in blocking buffer) was added to each well and incubated with shaking for 1-2 h at room temperature. Following incubation with the secondary antibody, the wells were rinsed with wash buffer and then 25 μL of Anti Rabbit Antibody Goat SULFO-TAG Labeled (Meso Scale Diagnostics, R32AB-1) detecting antibody (diluted to […] in 0.05% TWEEN®-20 in blocking buffer) was added to each well and incubated with shaking for 1 h at room temperature. After rinsing three times with wash buffer, 150 μL of Read Buffer T with surfactant (tris-based buffer containing tripropylamine, Meso Scale Diagnostics, R92TC-1) were added to each empty well, and the plate was imaged on a SI 6000 imager (MSD) according to manufacturers' instructions provided for 96- or 384-well plates.
# (§2) An average IC50>1 μM is indicated by one star (*), between >0.3 μM and ≤1 μM is indicated by two stars (**), between >0.03 μM and ≤0.3 μM is indicated by three stars (***), and ≤0.03 μM is indicated by four stars (****).
# ATXN3 pre-mRNA = test: RT-qPCR Assay to Quantify Exon 4 Skipping in ATXN3 pre-mRNA in Cells; assay type: cell-based; conditions: percent exon 4 skipping in ATXN3 pre-mRNA, RT-qPCR of cell lysates; average IC50
# Protocol: RT-qPCR Assay to Quantify Exon 4 Skipping in ATXN3 pre-mRNA in Cells
# as §1
# Cells were thawed and incubated in cell culture media (DMEM, 10% FBS, and 1% antibiotic cocktail) for 72 h. Cells were trypsinized, counted, and re-suspended to a concentration of 100,000 cells/mL in cell culture media. A 100 μL aliquot of the cell suspensions were plated at 10,000 cells per well in the compound containing 96 well microtiter plate and incubated for in a cell culture incubator (37° C., 5% CO2, 100% relative humidity).
# After 24 h, media was aspirated from the cells and 50 μL of the RCL2 lysis buffer (10 mM Tris-HCL pH 7.4, 150 mM NaCl, 0.33% IGEPAL® CA-630) was added to each well and incubated at RT for 1 min. Chilled nuclease free water (50 μL per well) was added and the plates were immediately transferred on ice. After 1 min on ice, plates were frozen at −80° C. overnight.
# Preparation of RT-qPCR Reaction Mixture:
# An aliquot of 2 μL/well of the cell lysates was transferred using the liquid handler to the Armadillo 384-Well PCR plate containing 8 μL/well of the RT-qPCR reaction mixture that was prepared as detailed above. The plates were then sealed with MicroAmp™ Optical Adhesive Film followed by spinning down for 1 min and placed in the CFX384 thermocycler (BioRad).
# The RT-qPCR was carried out at the following temperatures for the indicated time: • Step 1: 48° C. (30 min) • Step 2: 95° C. (10 min) • Step 3: 95° C. (15 sec) • Step 4: 60° C. (1 min); then, repeated Steps 3 and 4 for a total of 40 cycles.
# The percent exon 4 skipping was calculated for each dose of compound treatment using Equations 1 and 2.
# Data were fit to a dose response curve and the IC50 was interpolated using XLfit® statistical and curve fitting package.
# as §2
Substance,IC50 [1],IC50 (ATXN3 pre-mRNA)
"2-(3-aminotetrahydro-2H-pyran-2-yl)-N-benzyl-3-bromo-5-chlorothieno[3,2-b]pyridin-7-amine [Compound 27]",30 to 300 nM,≤ 30 nM
"2-((1R,2R)-2-amino-4,4-dimethylcyclohexyl)-3-bromo-5-chloro-N-(thiophen-2-ylmethyl)thieno[3,2-b]pyridin-7-amine and 2-((1S,2S)-2-amino-4,4-dimethylcyclohexyl)-3-bromo-5-chloro-N-(thiophen-2-ylmethyl)thieno[3,2-b]pyridin-7-amine [Compound 152]",30 to 300 nM,30 to 300 nM
"2-((1R,2R)-2-amino-5,5-difluorocyclohexyl)-5-chloro-3-methyl-N-(thiophen-2-ylmethyl)thieno[3,2-b]pyridin-7-amine and 2-((1S,2S)-2-amino-5,5-difluorocyclohexyl)-5-chloro-3-methyl-N-(thiophen-2-ylmethyl)thieno[3,2-b]pyridin-7-amine [Compound 333]",30 to 300 nM,30 to 300 nM
"2-((1R,2R)-2-amino-5,5-dimethylcyclohexyl)-3-bromo-5-chloro-N-(thiophen-2-ylmethyl)thieno[3,2-b]pyridin-7-amine and 2-((1S,2S)-2-amino-5,5-dimethylcyclohexyl)-3-bromo-5-chloro-N-(thiophen-2-ylmethyl)thieno[3,2-b]pyridin-7-amine [Compound 149]",30 to 300 nM,30 to 300 nM
"2-((1R,2R)-2-aminocyclohexyl)-3,5-dichloro-1-(difluoromethyl)-N-(thiophen-2-ylmethyl)-1H-pyrrolo[3,2-b]pyridin-7-amine and 2-((1S,2S)-2-aminocyclohexyl)-3,5-dichloro-1-(difluoromethyl)-N-(thiophen-2-ylmethyl)-1H-pyrrolo[3,2-b]pyridin-7-amine [Compound 421]",≤ 30 nM,≤ 30 nM
"2-((1R,2R)-2-aminocyclohexyl)-5-chloro-3-(prop-1-yn-1-yl)-N-(thiophen-2-ylmethyl)thieno[3,2-b]pyridin-7-amine and 2-((1S,2S)-2-aminocyclohexyl)-5-chloro-3-(prop-1-yn-1-yl)-N-(thiophen-2-ylmethyl)thieno[3,2-b]pyridin-7-amine [Compound 189]",≤ 30 nM,≤ 30 nM
"2-((1R,2R)-2-aminocyclohexyl)-5-chloro-3-methyl-N-(thiophen-2-ylmethyl)thieno[3,2-b]pyridin-7-amine or 2-((1S,2S)-2-aminocyclohexyl)-5-chloro-3-methyl-N-(thiophen-2-ylmethyl)thieno[3,2-b]pyridine-7-amine [Compound 35]",300 to 1000 nM,300 to 1000 nM
"2-((1R,2R)-2-aminocyclohexyl)-N-benzyl-5-chloro-3-(prop-1-yn-1-yl)thieno[3,2-b]pyridin-7-amine and 2-((1S,2S)-2-aminocyclohexyl)-N-benzyl-5-chloro-3-(prop-1-yn-1-yl)thieno[3,2-b]pyridin-7-amine [Compound 226]",≤ 30 nM,≤ 30 nM
"2-((1R,2R)-2-aminocyclohexyl)-N-benzyl-5-chloro-3-iodothieno[3,2-b]pyridin-7-amine and 2-((1S,2S)-2-aminocyclohexyl)-N-benzyl-5-chloro-3-iodothieno[3,2-b]pyridin-7-amine [Compound 295]",30 to 300 nM,30 to 300 nM
"2-((1R,2R,6S)-2-amino-6-fluorocyclohexyl)-3-bromo-5-chloro-N-(thiophen-2-ylmethyl)thieno[3,2-b]pyridin-7-amine and 2-((1S,2S,6R)-2-amino-6-fluorocyclohexyl)-3-bromo-5-chloro-N-(thiophen-2-ylmethyl)thieno[3,2-b]pyridin-7-amine [Compound 335]",30 to 300 nM,30 to 300 nM
"2-((1R,2S,6R)-2-amino-6-fluorocyclohexyl)-3-bromo-5-chloro-N-(thiophen-2-ylmethyl)thieno[3,2-b]pyridin-7-amine and 2-((1S,2R,6S)-2-amino-6-fluorocyclohexyl)-3-bromo-5-chloro-N-(thiophen-2-ylmethyl)thieno[3,2-b]pyridin-7-amine [Compound 181]",≤ 30 nM,≤ 30 nM
"2-((1R,2S,6R)-6-amino-2-methylcyclohex-3-en-1-yl)-3-bromo-5-chloro-N-(thiophen-2-ylmethyl)thieno[3,2-b]pyridin-7-amine and 2-((1S,2R,6S)-6-amino-2-methylcyclohex-3-en-1-yl)-3-bromo-5-chloro-N-(thiophen-2-ylmethyl)thieno[3,2-b]pyridin-7-amine [Compound 402]",≤ 30 nM,≤ 30 nM
"2-((1R,5S,6S)-6-amino-5-methoxycyclohex-3-en-1-yl)-3-bromo-5-chloro-N-(thiophen-2-ylmethyl)thieno[3,2-b]pyridin-7-amine and 2-((1S,5R,6R)-6-amino-5-methoxycyclohex-3-en-1-yl)-3-bromo-5-chloro-N-(thiophen-2-ylmethyl)thieno[3,2-b]pyridin-7-amine [Compound 371]",30 to 300 nM,30 to 300 nM
"2-((1R,6R)-6-aminocyclohex-3-en-1-yl)-3-bromo-5-chloro-N-((E)-pent-2-en-1-yl)thieno[3,2-b]pyridin-7-amine and 2-((1S,6S)-6-aminocyclohex-3-en-1-yl)-3-bromo-5-chloro-N-((E)-pent-2-en-1-yl)thieno[3,2-b]pyridin-7-amine [Compound 455]",300 to 1000 nM,300 to 1000 nM
"2-((1R,6R)-6-aminocyclohex-3-en-1-yl)-3-bromo-5-chloro-N-(cyclopent-1-en-1-ylmethyl)thieno[3,2-b]pyridin-7-amine and 2-((1S,6S)-6-aminocyclohex-3-en-1-yl)-3-bromo-5-chloro-N-(cyclopent-1-en-1-ylmethyl)thieno[3,2-b]pyridin-7-amine [Compound 332]",30 to 300 nM,30 to 300 nM
"2-((1R,6R)-6-aminocyclohex-3-en-1-yl)-5-chloro-3-(propa-1,2-dien-1-yl)-N-(thiophen-2-ylmethyl)thieno[3,2-b]pyridin-7-amine and 2-((1S,6S)-6-aminocyclohex-3-en-1-yl)-5-chloro-3-(propa-1,2-dien-1-yl)-N-(thiophen-2-ylmethyl)thieno[3,2-b]pyridin-7-amine [Compound 324]",30 to 300 nM,30 to 300 nM
"2-((1R,6R)-6-aminocyclohex-3-en-1-yl)-5-chloro-3-methyl-N-(thiophen-2-ylmethyl)thieno[3,2-b]pyridin-7-amine and 2-((1S,6S)-6-aminocyclohex-3-en-1-yl)-5-chloro-3-methyl-N-(thiophen-2-ylmethyl)thieno[3,2-b]pyridin-7-amine [Compound 367]",30 to 300 nM,30 to 300 nM
